Tested on: Transport facilitation protein genes
Assay: DNA chip mRNA expression in yeast, transport facilitation protein genes (Table 5)
Assay type: cell-based, Saccharomyces cerevisiae S288C
Outline: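 S. cerevisiae S288C grown at 25° C in YPD were exposed in log phase for two hours to one toxic chemical at a growth-inhibiting, non-lethal concentration; untreated cells served as control. Poly(A) mRNA was reverse-transcribed with Cy3/Cy5-dUTP and hybridized to a whole-genome yeast DNA chip at 65° C for over 12 hours; values are fluorescence ratios versus untreated.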

CCCCCCCCCCCCOS(=O)(=O)[O-].[Na+] [(18), sodium lauryl sulfate]
The level of expressed mRNA in the presence of chemical substance/The level of expressed mRNA in the absence of chemical substance (yeast gene YBL030C): 1.1 | The level of expressed mRNA in the presence of chemical substance/The level of expressed mRNA in the absence of chemical substance (yeast gene YBL099W): 1.2 | The level of expressed mRNA in the presence of chemical substance/The level of expressed mRNA in the absence of chemical substance (yeast gene YBR052C): 3.1 | The level of expressed mRNA in the presence of chemical substance/The level of expressed mRNA in the absence of chemical substance (yeast gene YBR068C): 1.3 | The level of expressed mRNA in the presence of chemical substance/The level of expressed mRNA in the absence of chemical substance (yeast gene YBR127C): 1.0 | The level of expressed mRNA in the presence of chemical substance/The level of expressed mRNA in the absence of chemical substance (yeast gene YBR132C): 1.3 | The level of expressed mRNA in the presence of chemical substance/The level of expressed mRNA in the absence of chemical substance (yeast gene YBR207W): 1.4 | The level of expressed mRNA in the presence of chemical substance/The level of expressed mRNA in the absence of chemical substance (yeast gene YBR293W): 0.9 | The level of expressed mRNA in the presence of chemical substance/The level of expressed mRNA in the absence of chemical substance (yeast gene YBR294W): 0.9 | The level of expressed mRNA in the presence of chemical substance/The level of expressed mRNA in the absence of chemical substance (yeast gene YBR295W): 1.2 | The level of expressed mRNA in the presence of chemical substance/The level of expressed mRNA in the absence of chemical substance (yeast gene YBR298C): 0.8 | The level of expressed mRNA in the presence of chemical substance/The level of expressed mRNA in the absence of chemical substance (yeast gene YCL025C): 0.6 | The level of expressed mRNA in the presence of chemical substance/The level of expressed mRNA in the absence of chemical substance (yeast gene YCL038C): 1.5 | The level of expressed mRNA in the presence of chemical substance/The level of expressed mRNA in the absence of chemical substance (yeast gene YCR024C-A): 1.4 | The level of expressed mRNA in the presence of chemical substance/The level of expressed mRNA in the absence of chemical substance (yeast gene YCR037C): 0.9 | The level of expressed mRNA in the presence of chemical substance/The level of expressed mRNA in the absence of chemical substance (yeast gene YCR098C): 1.6 | The level of expressed mRNA in the presence of chemical substance/The level of expressed mRNA in the absence of chemical substance (yeast gene YDL128W): 1.0 | The level of expressed mRNA in the presence of chemical substance/The level of expressed mRNA in the absence of chemical substance (yeast gene YDL198C): 1.1 | The level of expressed mRNA in the presence of chemical substance/The level of expressed mRNA in the absence of chemical substance (yeast gene YDL210W): 0.9 | The level of expressed mRNA in the presence of chemical substance/The level of expressed mRNA in the absence of chemical substance (yeast gene YDL245C): 1.1 | The level of expressed mRNA in the presence of chemical substance/The level of expressed mRNA in the absence of chemical substance (yeast gene YDR038C): 1.5 | The level of expressed mRNA in the presence of chemical substance/The level of expressed mRNA in the absence of chemical substance (yeast gene YDR039C): 1.6 | The level of expressed mRNA in the presence of chemical substance/The level of expressed mRNA in the absence of chemical substance (yeast gene YDR086C): 1.9 | The level of expressed mRNA in the presence of chemical substance/The level of expressed mRNA in the absence of chemical substance (yeast gene YDR270W): 0.7 | The level of expressed mRNA in the presence of chemical substance/The level of expressed mRNA in the absence of chemical substance (yeast gene YDR298C): 1.6 | The level of expressed mRNA in the presence of chemical substance/The level of expressed mRNA in the absence of chemical substance (yeast gene YDR342C): 2.2 | The level of expressed mRNA in the presence of chemical substance/The level of expressed mRNA in the absence of chemical substance (yeast gene YDR343C): 2.3 | The level of expressed mRNA in the presence of chemical substance/The level of expressed mRNA in the absence of chemical substance (yeast gene YDR345C): 1.8 | The level of expressed mRNA in the presence of chemical substance/The level of expressed mRNA in the absence of chemical substance (yeast gene YDR387C): 1.1 | The level of expressed mRNA in the presence of chemical substance/The level of expressed mRNA in the absence of chemical substance (yeast gene YDR497C): 1.8 | The level of expressed mRNA in the presence of chemical substance/The level of expressed mRNA in the absence of chemical substance (yeast gene YEL027W): 1.4 | The level of expressed mRNA in the presence of chemical substance/The level of expressed mRNA in the absence of chemical substance (yeast gene YEL063C): 0.7 | The level of expressed mRNA in the presence of chemical substance/The level of expressed mRNA in the absence of chemical substance (yeast gene YEL065W): 0.6 | The level of expressed mRNA in the presence of chemical substance/The level of expressed mRNA in the absence of chemical substance (yeast gene YER053C): 2.3 | The level of expressed mRNA in the presence of chemical substance/The level of expressed mRNA in the absence of chemical substance (yeast gene YFL011W): 1.0 | The level of expressed mRNA in the presence of chemical substance/The level of expressed mRNA in the absence of chemical substance (yeast gene YFL041W): 0.9 | The level of expressed mRNA in the presence of chemical substance/The level of expressed mRNA in the absence of chemical substance (yeast gene YFL050C): 1.0 | The level of expressed mRNA in the presence of chemical substance/The level of expressed mRNA in the absence of chemical substance (yeast gene YFL054C): 1.4 | The level of expressed mRNA in the presence of chemical substance/The level of expressed mRNA in the absence of chemical substance (yeast gene YGL006W): 4.1 | The level of expressed mRNA in the presence of chemical substance/The level of expressed mRNA in the absence of chemical substance (yeast gene YGL008C): 1.0 | The level of expressed mRNA in the presence of chemical substance/The level of expressed mRNA in the absence of chemical substance (yeast gene YGL104C): 1.3 | The level of expressed mRNA in the presence of chemical substance/The level of expressed mRNA in the absence of chemical substance (yeast gene YGL167C): 1.4 | The level of expressed mRNA in the presence of chemical substance/The level of expressed mRNA in the absence of chemical substance (yeast gene YGL255W): 0.5 | The level of expressed mRNA in the presence of chemical substance/The level of expressed mRNA in the absence of chemical substance (yeast gene YGR055W): 0.7 | The level of expressed mRNA in the presence of chemical substance/The level of expressed mRNA in the absence of chemical substance (yeast gene YGR065C): 0.7 | The level of expressed mRNA in the presence of chemical substance/The level of expressed mRNA in the absence of chemical substance (yeast gene YGR082W): 0.8 | The level of expressed mRNA in the presence of chemical substance/The level of expressed mRNA in the absence of chemical substance (yeast gene YGR096W): 1.0 | The level of expressed mRNA in the presence of chemical substance/The level of expressed mRNA in the absence of chemical substance (yeast gene YGR138C): 0.7 | The level of expressed mRNA in the presence of chemical substance/The level of expressed mRNA in the absence of chemical substance (yeast gene YGR191W): 0.8 | The level of expressed mRNA in the presence of chemical substance/The level of expressed mRNA in the absence of chemical substance (yeast gene YGR197C): 1.9
